# Experimental data as given in patent publication US11312705B2, “Heteroaryl[4,3-C]pyrimidine-5-amine derivative, preparation method therefor, and medical uses thereof” (Jiangsu Hengrui Medicine Co., Ltd., priority 2017, dated 2022).
# Key:
# Format in all cases: cell-based
# [1] = target: adenosine A2a receptor (A2aR) (Homo sapiens (Human), UniProt P29274); assay: Inhibition of adenosine A2a receptor cAMP signaling pathway (HTRF cAMP, CHO-K1/A2aR cells)
# Excerpt: (§1) Test Example 1. Determination of the inhibition activity of the compounds of the present invention on the adenosine A2a receptor (A2aR) cAMP signaling pathway, the adenosine A2b receptor (A2bR) cAMP signaling pathway, the adenosine A1 receptor (A1R) cAMP signaling pathway and the adenosine A3 receptor (A3R) cAMP signaling pathway.
# (§2) The inhibition activity of the compounds of the present invention on the adenosine A2a receptor cAMP signaling pathway, the adenosine A2b receptor cAMP signaling pathway, the adenosine A1 receptor cAMP signaling pathway and the adenosine A3 receptor cAMP signaling pathway was determined by the following method. The experimental method is briefly described as follows:
# 2.1 Adenosine A2a Receptor
# CHO-K1/A2aR cells were cultured in DMEM/F12 medium containing 10% fetal bovine serum and 800 μg/ml bleomycin. The cells were digested with the cell separation buffer during the experiment. The cells were resuspended in the balanced salt buffer containing 20 mM HEPES and 0.1% bovine serum albumin and counted, and the cell density was adjusted to 10^6 cells/ml. In the 384-well plate, each well was added with 5 μl of cell suspension, and 2.5 μl of test compound (4× concentration) formulated with the balanced salt buffer containing 20 mM HEPES, 0.1% bovine serum albumin, 54 μM rolipram and 2.7 U/ml adenosine deaminase, and the plate was incubated at room temperature for 30 minutes. Each well was then added with 2.5 μl of […] (4× concentration) formulated with the balanced salt buffer containing 20 mM HEPES, 0.1% bovine serum albumin, 54 μM rolipram and 2.7 U/ml adenosine deaminase, and the plate was incubated at room temperature for 30 minutes. The final concentrations of the compounds were: 10000, 2000, 400, 80, 16, 3.2, 0.64, 0.128, 0.0256, 0.00512, and 0.001024 nM. The final concentration of […] was 20 nM. Intracellular cAMP concentration was detected with the cAMP dynamic 2 kit. cAMP-d2 and Anti-cAMP-Eu-Cryptate were diluted respectively with the cAMP lysis buffer at a ratio of 1:4. Each well was added with 5 μl of diluted cAMP-d2, followed by addition of 5 μl of diluted Anti-cAMP-Eu-Cryptate, and the plate was incubated at room temperature in the dark for 1 hour. The HTRF signal values were read by the PHERAstar multi-function microplate reader.
# [2] = target: adenosine A1 receptor (A1R) (Homo sapiens (Human), UniProt P30542); assay: Inhibition of adenosine A1 receptor cAMP signaling pathway (HTRF cAMP, CHO-K1/A1R cells); settings: Table 2; for IC50: CHO-K1/A1R cells, forskolin 10 μM, CPA 10 nM, cAMP HTRF; for IC50 ratio (A1R/A2aR): selectivity A1R over A2aR
# Excerpt: as §1, §2
# 2.2 Adenosine A1 receptor
# (§3) CHO-K1/A1R cells were cultured in DMEM/F12 medium containing 10% fetal bovine serum and 1 mg/ml G418. The cells were digested with the cell separation buffer during the experiment. The cells were then resuspended in the balanced salt buffer containing 20 mM HEPES and 0.1% bovine serum albumin and counted, and the cell density was adjusted to 5×10^5 cells/ml. In the 384-well plate, each well was added with 12.5 μl of cell suspension, and 6.25 μl of test compound (4× concentration) formulated with the balanced salt buffer containing 20 mM HEPES, 0.1% bovine serum albumin, 54 μM rolipram and 2.7 U/ml adenosine deaminase, and the plate was incubated at room temperature for 30 minutes. Each well was then added with 6.25 μl of forskolin and N6-cyclopentyladenosine (4× concentration) formulated with the balanced salt buffer containing 20 mM HEPES, 0.1% bovine serum albumin, 54 μM rolipram and 2.7 U/ml adenosine deaminase, and the plate was incubated at room temperature for 30 minutes. The final concentrations of the compounds were: 100000, 10000, 1000, 100, 10, 1, 0.1 and 0 nM. The final concentration of forskolin was 10 μM. The final concentration of CPA was 10 nM. Intracellular cAMP concentration was detected with the cAMP dynamic 2 kit. cAMP-d2 and Anti-cAMP-Eu-Cryptate were diluted respectively with the cAMP lysis buffer at a ratio of 1:4. Each well was added with 12.5 μl of diluted cAMP-d2, followed by addition of 12.5 μl of diluted Anti-cAMP-Eu-Cryptate, and the plate was incubated at room temperature in the dark for 1 hour. The HTRF signal values were read by the PHERAstar multi-function microplate reader.
# [3] = target: adenosine A3 receptor (A3R) (Homo sapiens (Human), UniProt P0DMS8); assay: Inhibition of adenosine A3 receptor cAMP signaling pathway (HTRF cAMP, CHO-K1/A3R cells); settings: Table 2; for IC50: CHO-K1/A3R cells, forskolin 10 μM, 2Cl-IB-MECA 5 nM, cAMP HTRF
# Excerpt: as §1, §2
# 2.3 Adenosine A3 receptor
# as §3, with “CHO-K1/A3R cells were” for “CHO-K1/A1R cells were”, “serum and 10 μg/ml puromycin. The cells” for “serum and 1 mg/ml G418. The cells”, “cells were resuspended in” for “cells were then resuspended in”, “forskolin and 2Cl-IB-MECA (4× concentration)” for “forskolin and N6-cyclopentyladenosine (4× concentration)”, “concentration of 2Cl-IB-MECA was 5” for “concentration of CPA was 10”, “2Cl-IB-MECA was 5 nM. Intracellular” for “CPA was 10 nM. Intracellular”
# [4] = target: adenosine A2b receptor (A2bR) (Homo sapiens (Human), UniProt P29275); assay: Inhibition of adenosine A2b receptor cAMP signaling pathway (HTRF cAMP, CHO-K1/A2bR cells); settings: Table 3; for IC50: CHO-K1/A2bR cells, ethyl carbazole 1 μM, cAMP HTRF; for IC50 ratio (A2bR/A2aR): selectivity A2bR over A2aR
# Excerpt: as §1, §2
# 2.4 Adenosine A2b receptor (A2bR)
# CHO-K1/A2bR cells were cultured in DMEM/F12 medium containing 10% fetal bovine serum and 1 mg/ml G418. The cells were digested with the cell separation buffer during the experiment. The cells were resuspended in the balanced salt buffer containing 20 mM HEPES and 0.1% bovine serum albumin and counted, and the cell density was adjusted to 10^6 cells/ml. In the 384-well plate, each well was added with 5 μl of cell suspension, and 2.5 μl of test compound (4× concentration) formulated with the balanced salt buffer containing 20 mM HEPES, 0.1% bovine serum albumin, 54 μM rolipram and 2.7 U/ml adenosine deaminase, and the plate was incubated at room temperature for 30 minutes. Each well was then added with 2.5 μl of […] (4× concentration) (Torcis, 1691/10) formulated with the balanced salt buffer containing 20 mM HEPES, 0.1% bovine serum albumin, 54 μM rolipram and 2.7 U/ml adenosine deaminase, and the plate was incubated at room temperature for 30 minutes. The final concentrations of the compounds were: 100000, 10000, 1000, 100, 10, 1, 0.1 and 0 nM. The final concentration of […] was 1 μM. Intracellular cAMP concentration was detected with the cAMP dynamic 2 kit. cAMP-d2 and Anti-cAMP-Eu-Cryptate were diluted respectively with the cAMP lysis buffer at a ratio of 1:4. Each well was added with 5 μl of diluted cAMP-d2, followed by addition of 5 μl of diluted Anti-cAMP-Eu-Cryptate, and the plate was incubated at room temperature in the dark for 1 hour. The HTRF signal values were read by the PHERAstar multi-function microplate reader.
# adenosine A2a receptor (A2aR), sequence (P29274 whole entry): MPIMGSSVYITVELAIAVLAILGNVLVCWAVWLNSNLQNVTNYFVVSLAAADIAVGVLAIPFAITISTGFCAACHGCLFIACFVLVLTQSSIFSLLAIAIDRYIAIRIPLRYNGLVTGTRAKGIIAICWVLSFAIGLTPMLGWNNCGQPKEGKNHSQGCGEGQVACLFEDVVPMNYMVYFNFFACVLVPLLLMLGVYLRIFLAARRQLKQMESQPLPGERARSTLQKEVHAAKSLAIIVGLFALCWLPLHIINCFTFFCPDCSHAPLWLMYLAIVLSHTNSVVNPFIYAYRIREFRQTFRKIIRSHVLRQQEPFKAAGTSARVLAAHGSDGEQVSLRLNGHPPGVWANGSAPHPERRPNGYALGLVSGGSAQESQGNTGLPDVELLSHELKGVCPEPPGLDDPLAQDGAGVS
# adenosine A3 receptor (A3R), sequence (P0DMS8 whole entry): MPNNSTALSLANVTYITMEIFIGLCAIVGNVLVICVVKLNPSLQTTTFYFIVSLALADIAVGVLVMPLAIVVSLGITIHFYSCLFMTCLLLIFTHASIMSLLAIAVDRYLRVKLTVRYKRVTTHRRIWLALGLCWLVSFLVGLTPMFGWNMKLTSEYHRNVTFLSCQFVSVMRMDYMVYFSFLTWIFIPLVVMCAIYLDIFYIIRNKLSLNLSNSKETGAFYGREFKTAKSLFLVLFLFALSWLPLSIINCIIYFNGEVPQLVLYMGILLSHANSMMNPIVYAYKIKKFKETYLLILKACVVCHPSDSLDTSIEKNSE
# adenosine A2b receptor (A2bR), sequence (P29275 whole entry): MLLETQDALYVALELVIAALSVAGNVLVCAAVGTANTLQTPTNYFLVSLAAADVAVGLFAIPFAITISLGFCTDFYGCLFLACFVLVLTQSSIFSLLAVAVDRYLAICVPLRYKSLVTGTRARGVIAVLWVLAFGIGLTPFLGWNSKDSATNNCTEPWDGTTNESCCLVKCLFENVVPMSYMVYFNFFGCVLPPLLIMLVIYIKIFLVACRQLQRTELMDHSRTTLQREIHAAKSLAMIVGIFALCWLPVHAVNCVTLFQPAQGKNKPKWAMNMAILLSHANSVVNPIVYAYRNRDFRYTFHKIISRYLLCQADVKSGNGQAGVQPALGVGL
# adenosine A1 receptor (A1R), sequence (P30542 whole entry): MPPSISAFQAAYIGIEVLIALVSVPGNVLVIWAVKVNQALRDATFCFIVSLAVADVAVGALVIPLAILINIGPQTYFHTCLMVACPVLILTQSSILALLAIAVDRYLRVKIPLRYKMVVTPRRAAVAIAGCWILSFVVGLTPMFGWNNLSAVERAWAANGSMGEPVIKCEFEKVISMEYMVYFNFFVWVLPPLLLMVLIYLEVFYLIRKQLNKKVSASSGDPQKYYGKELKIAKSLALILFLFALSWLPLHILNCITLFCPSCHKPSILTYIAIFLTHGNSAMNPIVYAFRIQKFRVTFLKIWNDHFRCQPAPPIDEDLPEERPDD
SMILES,"IC50 ([1]; Table 1, ethyl carbazole 20 nM)","IC50 ([1]; Table 2, ethyl carbazole 20 nM)",IC50 [2],IC50 ratio (A1R/A2aR) [2],IC50 ratio (A3R/A2aR) [3],IC50 [3],"IC50 ([1]; Table 3, ethyl carbazole 20 nM)",IC50 [4],IC50 ratio (A2bR/A2aR) [4]
"Cc1cc(-c2c(-c3ccccc3F)nc(N)n3cnnc23)cc(C(F)(F)F)n1 [Example 33, 7-(2-Fluorophenyl)-8-(2-methyl-6-(trifluoromethyl)pyridin-4-yl)-[1,2,4]triazolo[4,3-c]pyrimidin-5-amine]",1.77 nM,,,,,,1.77 nM,134 nM,76
"Cc1cc(-c2c(-c3ccc(F)cc3F)nc(N)n3cnnc23)cc(Cl)n1 [Example 34, 8-(2-Chloro-6-methylpyridin-4-yl)-7-(2,4-difluorophenyl)-[1,2,4]triazolo[4,3-c]pyrimidin-5-amine]",2.04 nM,,,,,,2.04 nM,170 nM,83
"Cc1cc(-c2c(-c3ccc(Cl)cc3F)nc(N)n3cnnc23)cc(Cl)n1 [Example 50, 7-(4-Chloro-2-fluorophenyl)-8-(2-chloro-6-methylpyridin-4-yl)-[1,2,4]triazolo[4,3-c]pyrimidin-5-amine]",3.55 nM,,,,,,3.55 nM,255 nM,72
"Cc1cc(-c2c(-c3ccc(F)cc3)nc(N)n3cnnc23)cc(C(F)F)n1 [Example 51, 8-(2-(Difluoromethyl)-6-methylpyridin-4-yl)-7-(4-fluorophenyl)-[1,2,4]triazolo[4,3-c]pyrimidin-5-amine]",0.36 nM,0.36 nM,418 nM,1161,>10^4,> 10000 nM,,,
"Cc1cc(-c2c(-c3ccc(Cl)cc3)nc(N)n3cnnc23)cc(C(F)F)n1 [Example 52, 7-(4-Chlorophenyl)-8-(2-(difluoromethyl)-6-methylpyridin-4-yl)-[1,2,4]triazolo[4,3-c]pyrimidin-5-amine]",0.48 nM,0.48 nM,41 nM,85,>10^4,> 10000 nM,,,

# The next lines start with the values.
"IC50 ([1]; Table 1, ethyl carbazole 20 nM)","IC50 ([1]; Table 2, ethyl carbazole 20 nM)",IC50 [2],IC50 ratio (A1R/A2aR) [2],IC50 ratio (A3R/A2aR) [3],IC50 [3],"IC50 ([1]; Table 3, ethyl carbazole 20 nM)",IC50 [4],IC50 ratio (A2bR/A2aR) [4],SMILES
0.07 nM,0.07 nM,18 nM,257,2.9 × 10^4,2000 nM,,,,"Nc1nc(-c2ccccc2)c(-c2ccc3ncccc3c2)c2nncn12 [Example 3, 7-Phenyl-8-(quinolin-6-yl)-[1,2,4]triazolo[4,3-c]pyrimidin-5-amine]"
0.08 nM,0.08 nM,37 nM,463,>1.3 × 10^5,> 10000 nM,0.08 nM,82.6 nM,1032,"Cc1cc(-c2c(-c3ccccc3)nc(N)n3cnnc23)cc(Cl)n1 [Example 4, 8-(2-Chloro-6-methylpyridin-4-yl)-7-phenyl-[1,2,4]triazolo[4,3-c]pyrimidin-5-amine]"
0.09 nM,0.09 nM,12 nM,133,1.5 × 10^4,1400 nM,,,,"Cc1cc(-c2c(-c3ccccc3)nc(N)n3cnnc23)cc2cccnc12 [Example 5, 8-(8-Methylquinolin-6-yl)-7-phenyl-[1,2,4]triazolo[4,3-c]pyrimidin-5-amine]"
0.16 nM,0.16 nM,16 nM,100,3.1 × 10^4,5000 nM,,,,"Nc1nc(-c2ccccc2)c(-c2cc(F)c3ncccc3c2)c2nncn12 [Example 7, 8-(8-Fluoroquinolin-6-yl)-7-phenyl-[1,2,4]triazolo[4,3-c]pyrimidin-5-amine]"
0.15 nM,0.15 nM,102 nM,680,>6.7 × 10^4,> 10000 nM,,,,"Cc1cc(-c2c(-c3ccccc3)nc(N)n3cnnc23)cc(C)n1 [Example 11, 8-(2,6-Dimethylpyridin-4-yl)-7-phenyl-[1,2,4]triazolo[4,3-c]pyrimidin-5-amine]"
0.5 nM,0.5 nM,71 nM,142,>2 × 10^4,> 10000 nM,,,,"Cc1cc(-c2c(-c3ccccc3F)nc(N)n3cnnc23)cc(Cl)n1 [Example 27, 8-(2-Chloro-6-methylpyridin-4-yl)-7-(2-fluorophenyl)-[1,2,4]triazolo[4,3-c]pyrimidin-5-amine]"
0.52 nM,0.52 nM,66 nM,127,>1.9 × 10^4,> 10000 nM,,,,"Cc1cc(-c2c(-c3ccc(F)cc3)nc(N)n3cnnc23)cc(C)n1 [Example 28, 8-(2,6-Dimethylpyridin-4-yl)-7-(4-fluorophenyl)-[1,2,4]triazolo[4,3-c]pyrimidin-5-amine]"
